# Experimental data: patent US7498406B2, “Substantially cell membrane impermeable compound and use thereof” (priority 1999, dated 2009)
# What was measured:
# Thioredoxin = target: T1, Thioredoxin (Homo sapiens, UniProt P10599); assay: GSAO-B labelling of purified protein, streptavidin-peroxidase blot; type: binding; settings: 100 μM GSAO-B, 5 μM protein, 30 minutes
# T1 construct: purchased American Diagnostica, Greenwich, Conn; host or cells: E. coli
# Experimental: (§1) FIG. 14. Interaction of GSAO-B with PDI and thioredoxin. A Structure of GSAO-B. B Purified human recombinant PDI (5 μM), human recombinant thioredoxin (5 μM) or bovine serum albumin (5 ? M) was incubated with dithiothreitol (10 μM) for 60 minutes at room temperature to ensure that the active site disulfide(s) of PDI and thioredoxin were in the reduced dithiol form. GSAO-B (100 ? M) or GSAO-B and DMP (400 μM) was then added and the reactions incubated for 30 minutes at room temperature. The labelled PDI (lanes 1 and 2), thioredoxin (lanes 3 and 4) and albumin (lane 5) (75 pmoles) was resolved on […] SDS-PAGE, transferred to PVDF membrane, and blotted with streptavidin-peroxidase to detect the GSAO-B label. The positions of Mr markers are shown at left.
# (§2) Human recombinant PDI and thioredoxin bound GSAO-B (FIG. 14). Recombinant human protein disulfide isomerase (PDI) was produced in E. coli and purified according to Jiang et al. (1999). In the experiment, purified PDI, thioredoxin or albumin as negative control were incubated with a 2-fold molar excess of dithiothreitol for 60 minutes to ensure that the active site disulfides of PDI and thioredoxin were in the reduced dithiol state. The proteins were then incubated with GSAO-B or GSAO-B and a 4-fold molar excess of DMP for 30 minutes. Equivalent moles of the labeled proteins were resolved on SDS-PAGE, transferred to PVDF membrane, and blotted with streptavidin-peroxidase to detect the GSAO-B label. Samples were resolved on 4-15% SDS-PAGE under non-reducing conditions (Laemmli, 1970) and transferred to PVDF membrane. Proteins were detected by Western blot using an anti-PDI murine monoclonal antibody (Jiang et al., 1999) (used at 2 μg per mL). Rabbit anti-mouse horseradish peroxidase conjugated antibodies (Dako Corporation, Carpinteria, Calif.) were used at 1:2000 dilution. GSAO-B-labeled proteins were blotted with streptavidin peroxidase (Amersham, Sydney, NSW) used at 1:1000 dilution. […] Chemiluminescence films were analysed using a GS-700 Imaging Densitometer and Multi-Analyst software (Bio-Rad, Hercules, Calif.).
# human recombinant PDI = target: T2, human recombinant PDI (Homo sapiens, UniProt P07237); assay: as above; type: binding
# T2 construct: made in house; host or cells: E. coli
# T2 sequence (P07237 18-508): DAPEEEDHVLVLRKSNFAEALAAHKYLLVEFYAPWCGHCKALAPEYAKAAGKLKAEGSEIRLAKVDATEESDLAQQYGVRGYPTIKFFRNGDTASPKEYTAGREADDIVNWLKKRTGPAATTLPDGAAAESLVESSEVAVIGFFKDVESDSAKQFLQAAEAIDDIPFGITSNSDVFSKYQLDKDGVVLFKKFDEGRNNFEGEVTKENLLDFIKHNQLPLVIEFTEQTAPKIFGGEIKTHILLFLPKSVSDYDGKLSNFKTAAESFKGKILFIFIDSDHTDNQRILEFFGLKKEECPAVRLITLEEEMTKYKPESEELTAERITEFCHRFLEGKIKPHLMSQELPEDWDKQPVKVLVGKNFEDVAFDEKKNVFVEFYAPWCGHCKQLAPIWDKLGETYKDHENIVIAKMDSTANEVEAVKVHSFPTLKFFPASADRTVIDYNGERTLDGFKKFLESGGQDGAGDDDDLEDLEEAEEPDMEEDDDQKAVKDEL
# Experimental: as §1, §2
# bovine serum albumin = bovine serum albumin (Bos taurus, UniProt P02769); assay: GSAO-B labelling of purified protein, streptavidin-peroxidase blot (negative control protein); type: binding; settings: 100 μM GSAO-B, 5 μM protein, 30 minutes
# Sequence of bovine serum albumin (P02769 25-607): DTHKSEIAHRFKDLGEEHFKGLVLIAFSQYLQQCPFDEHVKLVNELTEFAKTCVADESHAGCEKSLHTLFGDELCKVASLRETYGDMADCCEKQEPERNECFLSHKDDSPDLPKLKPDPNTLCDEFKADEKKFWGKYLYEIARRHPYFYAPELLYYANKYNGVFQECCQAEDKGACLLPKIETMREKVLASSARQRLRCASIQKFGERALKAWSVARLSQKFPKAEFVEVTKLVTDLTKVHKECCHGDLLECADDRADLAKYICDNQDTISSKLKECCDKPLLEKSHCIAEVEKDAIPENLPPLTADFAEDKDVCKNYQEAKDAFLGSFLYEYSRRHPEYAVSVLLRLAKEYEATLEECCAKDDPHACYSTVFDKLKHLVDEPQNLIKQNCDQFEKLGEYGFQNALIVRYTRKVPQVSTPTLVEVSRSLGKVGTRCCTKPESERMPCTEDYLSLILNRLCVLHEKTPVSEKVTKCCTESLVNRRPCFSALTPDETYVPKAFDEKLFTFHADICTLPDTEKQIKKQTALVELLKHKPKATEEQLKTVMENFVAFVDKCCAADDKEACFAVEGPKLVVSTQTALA
# Experimental: as §1
# Human recombinant PDI and thioredoxin bound GSAO-B (FIG. 14). Recombinant human protein disulfide isomerase (PDI) was produced in E. coli and purified according to Jiang et al. (1999). […] Proteins were detected by Western blot using an anti-PDI murine monoclonal antibody (Jiang et al., 1999) (used at 2 μg per mL). […] Chemiluminescence films were analysed using a GS-700 Imaging Densitometer and Multi-Analyst software (Bio-Rad, Hercules, Calif.).
# HMEC-1 or HUVE cells = assay: GSAO-B labelling of endothelial cell surface proteins; type: cell-based, human
# Experimental: FIG. 16. Identification of endothelial cell surface proteins that contain closely spaced dithiols). A The surface of HMEC-1 or HUVE cells (2×10^6 cells in 0.4 mL) was labelled with GSAO-B (100 μM) for 30 minutes at room temperature in the absence (lanes 1 and 3) or presence of DMP (400 μM) (lane 2). The endothelial cells were lysed and the lysate from both incubations was resolved on 4-15% SDS-PAGE, transferred to PVDF membrane, and blotted with streptavidin peroxidase to detect the GSAO-B label. The results represent labelling of 3×10^4 HMEC-1 (lanes 1 and 2) of HUVE cells (lane 3). The positions of Mr markers are shown at left. B Densitometry profile of the surface labelled proteins (lanes 1 and 3). The apparent Mr's of the individual proteins are indicated.
# Human umbilical vein endothelial cells (HUVEC) (Wall et al., 1978) and the human dermal microvascular endothelial cell line, HMEC-1 (Ades et al., 1992), were harvested and cultured as indicated. Endothelial cells (5×10^6) were detached from culture flasks using 5 mM EDTA in PBS at 37° C., washed 3 times with PBS, resuspended in PBS containing 100 μM of GSAO-B in the absence or presence of 400 μM DMP, and incubated for 30 minutes at room temperature. The cells were washed 3 times with 1 mL of PBS, resuspended in 0.2 mL of ice cold 50 mM Tris/HCl, pH 8 buffer containing 0.5 M NaCl, 1% Triton X-100, 10 μM leupeptin, 2 mM PMSF (Sigma Chemical Company, St, Louis, Mo.), 5 mM EDTA and 10 μM aprotinin (Bayer Australia Ltd., Sydney, NSW), and sonicated on ice. On some occasions the cell lysates were incubated with streptavidin-agarose (Sigma, Castle Hill, NSW) beads (25 μL of packed beads in a total volume of 1 mL) for 60 minutes at 4° C. with rotary mixing. Bound proteins were washed 5 times with 50 mM Tris/HCl, pH 8 buffer containing 0.15 M NaCl and 0.05% Triton X-100, resolved on SDS-PAGE, transferred to PVDF membrane, and the GSAO-B-labeled proteins detected by Western blot.
# PDI = assay: GSAO-B labelling of PDI on the endothelial cell surface; type: cell-based; settings: 100 μM GSAO-B, 30 minutes
# Experimental: FIG. 17. PDI was one of the GSAO-B labelled proteins on the endothelial cell surface. HUVEC (5×10^6 cells in 0.75 mL) were labelled with GSAO-B (100 μM) for 30 minutes at 37° C. in the absence (lanes 1) or presence of DMP (400 μM) (lane 2). The cells were lysed and incubated with streptavidin-agarose beads to collect the biotin-labelled proteins. The labelled proteins were resolved on 4-15% SDS-PAGE, transferred to PVDF membrane, and blotted with anti-PDI monoclonal antibodies. The results represent labelling of 5×10^6 endothelial cells. The positions of Mr markers are shown at left.
# BAE cells were labeled with GSAO-B in the absence or presence of DMP, lysed and incubated with streptavidin-agarose beads to collect the biotin-labeled proteins. The labeled proteins were eluted from the beads, resolved on SDS-PAGE, transferred to PVDF membrane, and blotted with anti-PDI polyclonal antibodies.
# cell surface CD4 = target: T3, cell surface CD4 (Homo sapiens, UniProt P01730); assay: Labelling of cell surface CD4 on CEM-T4 cells; type: cell-based; settings: 100 μM, 30 min
# T3 construct: host or cells: CEM-T4
# Experimental: FIG. 32. Labelling of cell surface CD4 with GSAO-B. CEM-T4 were labelled with either MPB or GSAO-B. The biotin-labelled proteins were collected on streptavidin-agarose beads, resolved on 5-15% SDS-PAGE and Western blotted using Leu3a monoclonal antibody. Lane 1 is MPB-labelled CEM-T4 CD4 and lane 2 is GSAO-B-labelled CEM-T4 CD04. Lane 3 is a control experiment where GSAO-B was incubated with CEM-T4 cells in the presence of 400 μM DMP. Biotin-labelled proteins were from 2×10^6 cells. The positions of Mr markers in kDa are shown at left.
# CEM-T4 cells were obtained from the NIH AIDS Research and Reference Reagent Program, Rockville, Mass., CEM-T4 (1 mL of 5×10^6 per mL in Hanks balanced salt solution) were incubated with either sulfosuccinimidobiotin (SSB), 3-(N-maleimidylpropionyl)biocytin (MPB), or GSAO-B (100 μM) for 30 min at room temperature SSB was from Pierce, Rockford, Ill. while MPB was from Molecular Probes, Eugene, Oreg.. Unreacted SSB was quenched with glycine (200 μM), while unreacted MPB was quenched with reduced glutathione (GSH, 200 μM) for 30 min at room temperature. The labelled cells were washed twice with PBS and sonicated in 1 mL of 50 mM Tris-HCl, 0.5 M NaCl, 1% (v/v) Triton X-100, 10 μM leupeptin, 10 μM aprotinin, 2 mM phenylmethylsulfonyl fluoride, 5 mM EDTA, pH 8.0 buffer at 4° C. […]
# Labelled CD4 was detected by blotting with the Leu3a monoclonal antibody (FIG. 32).
# HIVIIIB = HIVIIIB entry into / infection of A3.01 cells, p24 antigen; type: cell-based, HIV; settings: 100 μM, 30 minutes before virus
# Experimental: FIG. 33. […] Cells were washed and incubated in complete medium at 5% CO2 and 37° C. for up to 10 days. […] B Concentration dependence of GSAO. […] Cells were washed, incubated in complete medium at 5% CO2 and 37° C. for 3 days and the conditioned medium collected and assayed for p24 antigen.
# FIG. 34. Inhibition of HIVIIIB infection of A3.01 cells by GSAO.
# A3.01 human T cells were exposed to GSAO for 30 minutes and then to HTLVIIIB virus for 2 hours after which the cells were washed and then cultured for up to 10 days. HTLVIIIB and A3.01 cells were obtained from the NIH AIDS Research and Reference Reagent Program, Rockville, Mass. Virus stocks were made and infectivity titer determined using A3.01 cells and the p24 antigen assay (Coulter, Miami, Fla.). A3.01 cells were cultured in RPMI medium containing 10% fetal calf serum. […] Cell numbers and cell viability were determined at the times specified by staining cells with trypan blue and counting using a Neubauer haemacytometer. Cell viability was measured as a percentage of live cells to total cells.
# [1] = Stability of the trivalent arsenicals towards oxidation; type: physicochemical; settings: slowed by removal of O2, lower pH or glycine
# Text: This oxidation can be slowed in three ways; removal of dissolved O2 from solutions containing the arsenoxides, lowering the pH of these solutions, or by addition of glycine to the solutions. Glycine is routinely used to prevent oxidation of the stock solutions of the trivalent organoarsenicals. Similar to the reaction between 2,3-dimercaptopropanol and R—As(OH)2 in which a 5-membered dithioarsonite (XI) is formed, reaction of glycine with R—As(OH)2 is thought to give a 5-membered cyclic 1,3,2-oxazarsolidin-5-one (XII).
# T1 sequence (P10599 whole entry): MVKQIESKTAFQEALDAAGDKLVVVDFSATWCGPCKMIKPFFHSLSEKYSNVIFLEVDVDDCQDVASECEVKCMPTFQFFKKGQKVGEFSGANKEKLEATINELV
compound,measurement,setting,value
4-(N-(S-(N-(6-(N-(6-(N-(biotinoyl)amino)hexanoyl)amino)hexanoyl)glutathionyl)acetyl)amino)phenylarsenoxide [GSAO-B],incorporation of GSAO-B label,Thioredoxin,incorporated GSAO-B
same,incorporation of GSAO-B label,"human recombinant PDI; 100 μM GSAO-B, 5 μM protein, 30 minutes",incorporated GSAO-B
same,density of labeling of PDI relative to thioredoxin,human recombinant PDI; equivalent moles of protein,approximately twice that of thioredoxin
same,incorporation of GSAO-B label,bovine serum albumin,albumin did not
same,incorporation in the presence of DMP,HMEC-1 or HUVE cells; 100 μM GSAO-B with 400 μM DMP,effectively no incorporation of GSAO-B in the presence of DMP
same,proteins on the endothelial cell surface that bind the compound,"HMEC-1 or HUVE cells; 100 μM, 30 minutes",approximately ten proteins
same,labelling of cell surface PDI,PDI,PDI was one of the proteins on the endothelial cell surface that incorporated GSAO-B
same,labelling of T cell surface CD4,cell surface CD4,incorporated GSAO-B
"O=C(CCCC[C@@H]1SC[C@@H]2NC(=O)N[C@@H]21)NCCCC[C@H](NC(=O)CCN1C(=O)C=CC1=O)C(=O)O [MPB, 3-(N-maleimidylpropionyl)biocytin, reference compound]",inhibition of HIVIIIB entry,HIVIIIB,Inhibition of HIVIIIB entry
"O=[As]c1ccc(NC(=O)CBr)cc1 (stereo not shown) [BRAO, 4-(N-(bromoacetyl)amino)-phenylarsenoxide]",stability of solutions towards oxidation,[1],deactivated over time by oxidation
